Data from patent publication US20100129800A1, “POLYMERS AND THEIR USE AS FLUORESCENT LABELS” (priority 2007, published 2010).

assay: Fluorescence properties of the new compounds (excitation and emission wavelengths); format: physicochemical; settings: free compound

Row | SMILES | Fluorescence Excitation (nm) | Fluorescence emission (nm)
1 | CC(O)C(COP(=O)(O)OC(C)C(CO)NC(=O)c1c2ccccc2nc2c1[nH]c1ccccc12)NC(=O)c1c2ccccc2nc2c1[nH]c1ccccc12 (centres unmarked) [Example 28, O-{2-N-(10H-indolo[3,2-d]quinoline-11-carbamoyl)-(1-hydroxybut-3-yl)} and O-(2-N-{10H-indolo[3,2-d]quinoline-11-carbamoyl}-3-hydroxybut-1-yl)phosphate] | 346 nm | 495 nm
2 | CC(OP(=O)(O)OCC(O)CNc1c2nc3ccccc3c-2n(C)c2ccccc12)C(CO)NC(=O)c1c2ccccc2nc2ccccc12 [Example 31, O-{2-N-(Acridine-9-carbamoyl)-(1-hydroxybut-3-yl)} and O-{3-(5-methyl-5H-indolo[3,2b]quinolin-11-ylamino-(S)-(2-hydroxyprop-3-yl} phosphate] | 353 nm | 441 nm
3 | CC(OP(O)(=S)OC[C@@H](O)CNc1c2nc3ccccc3c-2n(C)c2ccccc12)C(CO)NC(=O)c1c2ccccc2nc2ccccc12 (stereo partly drawn) [Example 32, O-{2-N-(Acridine-9-carbamoyl)-(1-hydroxybut-3-yl)} and O-}3-(5-methyl-5H-indolo[3,2b]quinolin-11-ylamino-(S)-(2-hydroxyprop-3-yl} phosphorotioate] | 359 nm | 448 nm
4 | NC(=O)CCCOP(=O)(O)O[C@H](CNc1c2ccccc2nc2ccccc12)COP(=O)(O)O[C@@H](CO)CNc1c2ccccc2nc2ccccc12 [Example 33, O-[(R)-3-(Acridin-9-ylamino)-1-hydroxy-propane-2-yl]-phosphate (2-1) O-{2-N-(acridine-9-ylamino)-2-oxyprop-1-yl} phosphate(2-4) 4-hydroxybutirame] | 359 nm | 440 nm
5 | CC(O)C(COP(=O)(O)OC(C)C(CO)NC(=O)c1cc(-c2ccccc2)nc2ccccc12)NC(=O)c1c2ccccc2nc2ccccc12 (centres unmarked) [Example 34, O-{2-N-(2-phenylquinoline-4-carbamoyl-1-hydroxybutan-3-yl)} and O-{2-N-(acridine-9-carbamoyl)-3-hydroxybut-1-yl} phosphate] | 252 nm | 437 nm

The remaining lines, values ahead:

Row | Fluorescence Excitation (nm) | Fluorescence emission (nm) | SMILES
6 | 346 nm | 402 nm | CC(O)C(CO)NC(=O)c1c2ccccc2nc2c1[nH]c1ccccc12 (centres unmarked) [Compound 2a, N-(1,3-dihydroxybutan-2-yl)-10H-indolo[3,2-d]quinoline-11-carboxamide]
7 | 358 nm | 439 nm | CC(O)C(CO)NC(=O)c1c2ccccc2nc2ccccc12 (centres unmarked) [Compound 2b, N-(1,3-dihydroxybutan-2-yl)acridine-9-carboxamide]
8 | 247 nm | 440 nm | CC(O)C(CO)NC(=O)CNC(=O)c1c2ccccc2nc2ccccc12 (centres unmarked) [Compound 2d, N-((1,3-dihydroxybutan-2-ylcarbamoyl)methyl)acridine-9-carboxamide]
9 | 326 nm | 377 nm | C[C@@H](O)[C@H](CO)NC(=O)c1cc(-c2ccccc2)nc2ccccc12 [Compound 2e, N-((2S, 3R)-1,3-dihydroxybutan-2-yl)-2-phenylquinoline-4-carboxamide]
10 | 261 nm | 456 nm | C[C@@H](O)[C@H](CO)NC(=O)CN1c2ccccc2C=C2C3C=CC=CC3=NC21 (stereo partly drawn) [Compound 2f, N-((2S, 3R)-1,3-dihydroxybutan-2-yl)-(4a, 10a-dihydro-10,11-diazabenzo[b]fluoren-10-yl)acetamide]
11 | 433 nm |  | OC[C@H](O)CNc1c2ccccc2nc2ccccc12 [Compound 5a, (R)-3-(Acridin-9-ylamino)propane-1,2-diol]
12 | 340 nm | 469 nm | Cn1c2c3ccccc3nc-2c(NC[C@H](O)CO)c2ccccc21 [Compound 5b, (S)-3-(5-Methyl-5H-indolo[3,2b]quinolin-11-ylamino)propane-1,2-diol]
